Columns and labels:
Format in all cases: functional
Details in all cases: read-out: GI
HOP-92 = test: Growth inhibition of human HOP-92 cells at 10 uM incubated for 48 hrs by sulforhodamine B assay relative to control
SK-OV-3 = test: Growth inhibition of human SK-OV-3 cells at 10 uM incubated for 48 hrs by sulforhodamine B assay relative to control
A549 = test: Growth inhibition of human A549/ATCC cells at 10 uM incubated for 48 hrs by sulforhodamine B assay relative to control
Malme-3M = test: Growth inhibition of human Malme-3M cells at 10 uM incubated for 48 hrs by sulforhodamine B assay relative to control
RPMI-8226 = test: Growth inhibition of human RPMI-8226 cells at 10 uM incubated for 48 hrs by sulforhodamine B assay relative to control
CCRF-CEM = test: Growth inhibition of human CCRF-CEM cells at 10 uM incubated for 48 hrs by sulforhodamine B assay relative to control
MCF7 = test: Growth inhibition of human MCF7 cells at 10 uM incubated for 48 hrs by sulforhodamine B assay relative to control
OVCAR-3 = test: Growth inhibition of human OVCAR-3 cells at 10 uM incubated for 48 hrs by sulforhodamine B assay relative to control
KM12 = test: Growth inhibition of human KM12 cells at 10 uM incubated for 48 hrs by sulforhodamine B assay relative to control
HCT-15 = test: Growth inhibition of human HCT-15 cells at 10 uM incubated for 48 hrs by sulforhodamine B assay relative to control
NCI-H460 = test: Growth inhibition of human NCI-H460 cells at 10 uM incubated for 48 hrs by sulforhodamine B assay relative to control
MDA-MB-231 = test: Growth inhibition of human MDA-MB-231 cells at 10 uM incubated for 48 hrs by sulforhodamine B assay relative to control
HCT-116 = test: Growth inhibition of human HCT-116 cells at 10 uM incubated for 48 hrs by sulforhodamine B assay relative to control
786-0 = test: Growth inhibition of human 786-0 cells at 10 uM incubated for 48 hrs by sulforhodamine B assay relative to control
SK-MEL-28 = test: Growth inhibition of human SK-MEL-28 cells at 10 uM incubated for 48 hrs by sulforhodamine B assay relative to control
COLO 205 = test: Growth inhibition of human COLO 205 cells at 10 uM incubated for 48 hrs by sulforhodamine B assay relative to control
DU-145 = test: Growth inhibition of human DU-145 cells at 10 uM incubated for 48 hrs by sulforhodamine B assay relative to control
TK-10 = test: Growth inhibition of human TK-10 cells at 10 uM incubated for 48 hrs by sulforhodamine B assay relative to control
SW-620 = test: Growth inhibition of human SW-620 cells at 10 uM incubated for 48 hrs by sulforhodamine B assay relative to control
T47D = test: Growth inhibition of human T47D cells at 10 uM incubated for 48 hrs by sulforhodamine B assay relative to control
BT-549 = test: Growth inhibition of human BT-549 cells at 10 uM incubated for 48 hrs by sulforhodamine B assay relative to control
SNB-75 = test: Growth inhibition of human SNB-75 cells at 10 uM incubated for 48 hrs by sulforhodamine B assay relative to control
HCC 2998 = test: Growth inhibition of human HCC 2998 cells at 10 uM incubated for 48 hrs by sulforhodamine B assay relative to control
OVCAR-4 = test: Growth inhibition of human OVCAR-4 cells at 10 uM incubated for 48 hrs by sulforhodamine B assay relative to control
LOX IMVI = test: Growth inhibition of human LOX IMVI cells at 10 uM incubated for 48 hrs by sulforhodamine B assay relative to control
SNB-19 = test: Growth inhibition of human SNB-19 cells at 10 uM incubated for 48 hrs by sulforhodamine B assay relative to control
UACC-62 = test: Growth inhibition of human UACC-62 cells at 10 uM incubated for 48 hrs by sulforhodamine B assay relative to control
MDA-MB-435 = test: Growth inhibition of human MDA-MB-435 cells at 10 uM incubated for 48 hrs by sulforhodamine B assay relative to control
IGROV-1 = test: Growth inhibition of human IGROV-1 cells at 10 uM incubated for 48 hrs by sulforhodamine B assay relative to control
OVCAR-5 = test: Growth inhibition of human OVCAR-5 cells at 10 uM incubated for 48 hrs by sulforhodamine B assay relative to control
NCI-H226 = test: Growth inhibition of human NCI-H226 cells at 10 uM incubated for 48 hrs by sulforhodamine B assay relative to control
RXF 393 = test: Growth inhibition of human RXF 393 cells at 10 uM incubated for 48 hrs by sulforhodamine B assay relative to control
SF-268 = test: Growth inhibition of human SF-268 cells at 10 uM incubated for 48 hrs by sulforhodamine B assay relative to control
UACC-257 = test: Growth inhibition of human UACC-257 cells at 10 uM incubated for 48 hrs by sulforhodamine B assay relative to control
M14 = test: Growth inhibition of human M14 cells at 10 uM incubated for 48 hrs by sulforhodamine B assay relative to control
K562 = test: Growth inhibition of human K562 cells at 10 uM incubated for 48 hrs by sulforhodamine B assay relative to control
NCI-H522 = test: Growth inhibition of human NCI-H522 cells at 10 uM incubated for 48 hrs by sulforhodamine B assay relative to control
NCI-H322M = test: Growth inhibition of human NCI-H322M cells at 10 uM incubated for 48 hrs by sulforhodamine B assay relative to control
ACHN = test: Growth inhibition of human ACHN cells at 10 uM incubated for 48 hrs by sulforhodamine B assay relative to control
HT-29 = test: Growth inhibition of human HT-29 cells at 10 uM incubated for 48 hrs by sulforhodamine B assay relative to control
NCI-H23 = test: Growth inhibition of human NCI-H23 cells at 10 uM incubated for 48 hrs by sulforhodamine B assay relative to control
SK-MEL-5 = test: Growth inhibition of human SK-MEL-5 cells at 10 uM incubated for 48 hrs by sulforhodamine B assay relative to control
CAKI-1 = test: Growth inhibition of human CAKI-1 cells at 10 uM incubated for 48 hrs by sulforhodamine B assay relative to control
NCI/ADR-RES = test: Growth inhibition of human NCI/ADR-RES cells at 10 uM incubated for 48 hrs by sulforhodamine B assay relative to control

With `O=C(Cn1ccc2ccccc21)Nc1ccc(-c2nc3ccccc3s2)cc1` the inhibition of growth at 10 µM (HOP-92) was -4.8%, the inhibition of growth at 10 µM (SK-OV-3) was -1.65% and the inhibition of growth at 10 µM (A549) was 1.71%. It also gave an inhibition of growth at 10 µM (Malme-3M) of -8.06%, an inhibition of growth at 10 µM (RPMI-8226) of 0% and an inhibition of growth at 10 µM (CCRF-CEM) of 2.97%. For the same molecule, the inhibition of growth at 10 µM (MCF7) was 61.8%, the inhibition of growth at 10 µM (OVCAR-3) was -2.19% and the inhibition of growth at 10 µM (KM12) was -6.39%. It also gave an inhibition of growth at 10 µM (HCT-15) of -10.2%, an inhibition of growth at 10 µM (NCI-H460) of -4.62% and an inhibition of growth at 10 µM (MDA-MB-231) of -7.77%. The inhibition of growth at 10 µM (HCT-116) was -1.55%, the inhibition of growth at 10 µM (786-0) was -3.1% and the inhibition of growth at 10 µM (SK-MEL-28) was -13.7%. For the same molecule, the inhibition of growth at 10 µM (COLO 205) was -0.82%, the inhibition of growth at 10 µM (DU-145) was -0.67% and the inhibition of growth at 10 µM (TK-10) was -3.65%. It also gave an inhibition of growth at 10 µM (SW-620) of -6.47%, an inhibition of growth at 10 µM (T47D) of 9.38% and an inhibition of growth at 10 µM (BT-549) of -5.34%. It also gave an inhibition of growth at 10 µM (SNB-75) of 6.21%, an inhibition of growth at 10 µM (HCC 2998) of -3.48% and an inhibition of growth at 10 µM (OVCAR-4) of -2.92%. For the same molecule, the inhibition of growth at 10 µM (LOX IMVI) was 8.68%, the inhibition of growth at 10 µM (SNB-19) was 1.41% and the inhibition of growth at 10 µM (UACC-62) was 5.01%. The inhibition of growth at 10 µM (MDA-MB-435) was -3.52%, the inhibition of growth at 10 µM (IGROV-1) was 26.2% and the inhibition of growth at 10 µM (OVCAR-5) was -3.94%. For the same molecule, the inhibition of growth at 10 µM (NCI-H226) was -2.24%, the inhibition of growth at 10 µM (RXF 393) was -12.6% and the inhibition of growth at 10 µM (SF-268) was 3.37%. It also gave an inhibition of growth at 10 µM (UACC-257) of -0.08%, an inhibition of growth at 10 µM (M14) of -8.41% and an inhibition of growth at 10 µM (K562) of -3.37%. The inhibition of growth at 10 µM (NCI-H522) was -1.58%, the inhibition of growth at 10 µM (NCI-H322M) was 1.19% and the inhibition of growth at 10 µM (ACHN) was -10.9%. The inhibition of growth at 10 µM (HT-29) was -14.7%, the inhibition of growth at 10 µM (NCI-H23) was 5.98% and the inhibition of growth at 10 µM (SK-MEL-5) was 1.44%. For the same molecule, the inhibition of growth at 10 µM (CAKI-1) was -0.29% and the inhibition of growth at 10 µM (NCI/ADR-RES) was -0.33%.
In the case of `O=C(CNc1nnc(-c2ccc(Cl)cc2)o1)Nc1ccc(-c2nc3ccccc3s2)cc1`, the inhibition of growth at 10 µM (HOP-92) is reported as 12.1%, the inhibition of growth at 10 µM (SK-OV-3) is reported as -16.6% and the inhibition of growth at 10 µM (A549) is reported as 4.18%. The inhibition of growth at 10 µM (Malme-3M) was 11.3%, the inhibition of growth at 10 µM (RPMI-8226) was 4.61% and the inhibition of growth at 10 µM (CCRF-CEM) was 46.7%. It also gave an inhibition of growth at 10 µM (MCF7) of 65.5%, an inhibition of growth at 10 µM (OVCAR-3) of 2.27% and an inhibition of growth at 10 µM (KM12) of 2.99%. It also gave an inhibition of growth at 10 µM (HCT-15) of 10.4%, an inhibition of growth at 10 µM (NCI-H460) of 0.31% and an inhibition of growth at 10 µM (MDA-MB-231) of 1.2%. It also gave an inhibition of growth at 10 µM (HCT-116) of 10.2%, an inhibition of growth at 10 µM (786-0) of -1.02% and an inhibition of growth at 10 µM (SK-MEL-28) of -16.7%. It also gave an inhibition of growth at 10 µM (COLO 205) of -4.34%, an inhibition of growth at 10 µM (DU-145) of 1.53% and an inhibition of growth at 10 µM (TK-10) of 8.25%. It also gave an inhibition of growth at 10 µM (SW-620) of -9.76%, an inhibition of growth at 10 µM (T47D) of 20.1% and an inhibition of growth at 10 µM (BT-549) of 13%. It also gave an inhibition of growth at 10 µM (SNB-75) of 14.2%, an inhibition of growth at 10 µM (HCC 2998) of 6.46% and an inhibition of growth at 10 µM (OVCAR-4) of -3.22%. For the same molecule, the inhibition of growth at 10 µM (LOX IMVI) was 143%, the inhibition of growth at 10 µM (SNB-19) was 9.4% and the inhibition of growth at 10 µM (UACC-62) was 13.9%. It also gave an inhibition of growth at 10 µM (MDA-MB-435) of 2.95%, an inhibition of growth at 10 µM (IGROV-1) of 5.85% and an inhibition of growth at 10 µM (OVCAR-5) of -16.4%. The inhibition of growth at 10 µM (NCI-H226) was 17.1%, the inhibition of growth at 10 µM (RXF 393) was -0.2% and the inhibition of growth at 10 µM (SF-268) was 22.6%. The inhibition of growth at 10 µM (UACC-257) was -2.8%, the inhibition of growth at 10 µM (M14) was -1.85% and the inhibition of growth at 10 µM (K562) was 14.4%. It also gave an inhibition of growth at 10 µM (NCI-H522) of 22.9%, an inhibition of growth at 10 µM (NCI-H322M) of 4.86% and an inhibition of growth at 10 µM (ACHN) of -12%. For the same molecule, the inhibition of growth at 10 µM (HT-29) was 4.3%, the inhibition of growth at 10 µM (NCI-H23) was 11.3% and the inhibition of growth at 10 µM (SK-MEL-5) was 7.93%. It also gave an inhibition of growth at 10 µM (CAKI-1) of -0.31% and an inhibition of growth at 10 µM (NCI/ADR-RES) of 1.07%.
